Experimental data taken from patent publication US20260166122A1, “USE OF MICROPEPTIDE MIAC” (NANJING ANJI BIOTECHNOLOGY CO., LTD, priority 2023, published 2026).
Like-named read-outs stand apart in the source and are kept apart here. Marks after values point to notes of the source that are not given here. Ends that are not written are not given here.

Key:
[1] = test system: human acute non-T non-B lymphocytic leukemia cells Reh; assay type: cell-based; details: 72 h
Procedure: (§1) Human pancreatic cancer, hepatocellular carcinoma, colorectal cancer, ovarian cancer, cervical cancer, bladder cancer, melanoma, glioblastoma, neuroblastoma, glioma, osteosarcoma, myeloma, lymphoma, hematologic malignancies, and cholangiocarcinoma cells were cultured in an incubator at 37° C. with 5% CO2 until the density reached 90%, then digested and collected with trypsin, resuspended in a culture medium, and counted under a microscope; the cell concentration was adjusted to about 1.0×10^5 cells/mL; and the cell suspension was inoculated into a 96-well plate, with 100 μL per well, and incubated overnight in an incubator at 37° C. with 5% CO2. After the cells were completely attached to the wall, 100 μL of micropeptides MIAC with concentrations of 50 μM, 100 μM and 200 μM were added to form an administration group; and a culture medium without any medicament was used as a negative control group. After continuing incubation for 72 h, 100 μL of CCK8 was added to each well of the 96-well plate for dissolving. The absorbance OD was measured at a detection wavelength of 450 nm with a microplate reader, and the proliferation inhibition (PI) was calculated using the formula of PI (%)=1-administration group/negative control group. The experiment was repeated 3 times independently, the results were expressed as Mean±SD, and a statistical T test was performed, where *P<0.05 indicated a significant difference and **P<0.01 indicated an extremely significant difference.

[2] = test system: human bladder cancer cells EJ; assay type: cell-based; details: 72 h
Procedure: as §1

[3] = test system: human bladder transitional cell carcinoma cells T24; assay type: cell-based; details: 72 h
Procedure: as §1

[4] = test system: human cerebral astrocytic glioblastoma cells U87-MG; assay type: cell-based; details: 72 h
Procedure: as §1

[5] = test system: human glioma cells SHG-44; assay type: cell-based; details: 72 h
Procedure: as §1

[6] = test system: human histiocytic lymphoma cells U937; assay type: cell-based; details: 72 h
Procedure: as §1

[7] = test system: human myeloma cells NCI-H929; assay type: cell-based; details: 72 h
Procedure: as §1

[8] = test system: human osteogenic sarcoma cells Saos-2; assay type: cell-based; details: 72 h
Procedure: as §1

[9] = test system: human osteosarcoma cells U-2OS; assay type: cell-based; details: 72 h
Procedure: as §1

[10] = test system: human ovarian cancer cells A2780; assay type: cell-based; details: 72 h
Procedure: as §1

[11] = test system: human pancreatic cancer cells Aspc-1; assay type: cell-based; details: 72 h
Procedure: as §1

[12] = test system: human gastric carcinoma cells BGC-823; assay type: cell-based; details: 72 h
[13] = test system: human breast cancer cells MDA-MB-231; assay type: cell-based; details: 72 h
[14] = test system: cervical cancer Hela cells; experiment: transwell migration inhibition, Hela; assay type: cell-based, human; details: 48 h
Procedure: (§2) Human prostate cancer, cervical cancer, osteosarcoma, ovarian cancer, melanoma, and hepatocellular carcinoma cells were inoculated into transwell chambers, with 100 μL per well; for an administration group, 100 μL of a micropeptide MIAC was added to each of the chambers at a different dose; and no medicament was added to a blank group. Then, 0.6 mL of a complete medium comprising 10% FBS was added to transwell lower chambers to stimulate cell migration, followed by incubation at 37° C. with 5% CO2 for 48 h. The culture medium in the wells was discarded, and the cells were fixed with methanol at room temperature for 30 min, stained with 0.1% crystal violet at room temperature for 10 min, and rinsed thoroughly with clear water; the unmigrated cells in the upper layer were wiped off with a cotton swab; and the migrated cells were observed under a microscope, and four visual fields were selected for photography and counting. The migration inhibition rate (MI) was calculated using the following formula: […]
(§3) where Ntest represents the number of migrated cells in the administration group, and Ncontrol represents the number of migrated cells in the blank control group.

[15] = test system: malignant melanoma A375 cells; experiment: transwell migration inhibition, A375; assay type: cell-based, human; details: 48 h
Procedure: as §2, §3

**Q.** Which OD ([1]; 50 μM) does the source give for “MERAGVPGFSPRRSSVEAKMQSTSCSVRKSSTVTAWPAVVLLLSWGQRRGG [MIAC, micropeptide inhibiting actin cytoskeleton]” here?
**A.** The OD was 0.964 ± 0.037.

**Q.** What about the OD ([1]; 100 μM) of the same sequence?
**A.** Its OD is 0.687 ± 0.019**.

**Q.** And the OD ([1]; 200 μM)?
**A.** Its OD is 0.421 ± 0.029**.

**Q.** And the OD ([2]; 50 μM)?
**A.** The OD was 1.126 ± 0.017.

**Q.** What about the OD ([2]; 100 μM) of the same sequence?
**A.** Its OD is 0.891 ± 0.009**.

**Q.** And the OD ([2]; 200 μM)?
**A.** The OD was 0.628 ± 0.045**.

**Q.** What about the OD ([3]; T24, 50 μM) of the same sequence?
**A.** Its OD is 1.125 ± 0.010.

**Q.** And the OD ([3]; T24, 100 μM)?
**A.** Its OD is 0.730 ± 0.085**.

**Q.** And the OD ([3]; T24, 200 μM)?
**A.** Its OD is 0.364 ± 0.043**.

**Q.** And the OD ([4]; 50 μM)?
**A.** Its OD is 0.951 ± 0.019.

**Q.** And the OD ([4]; 100 μM)?
**A.** Its OD is 0.785 ± 0.029**.

**Q.** What about the OD ([4]; 200 μM) of the same sequence?
**A.** The OD was 0.656 ± 0.030**.

**Q.** What about the OD ([5]; SHG-44, 50 μM) of the same sequence?
**A.** Its OD is 1.201 ± 0.026.

**Q.** What about the OD ([5]; SHG-44, 100 μM) of the same sequence?
**A.** Its OD is 0.838 ± 0.067**.

**Q.** What about the OD ([5]; SHG-44, 200 μM) of the same sequence?
**A.** Its OD is 0.393 ± 0.021**.

**Q.** And the OD ([6]; U937, 50 μM)?
**A.** Its OD is 1.069 ± 0.028.

**Q.** What about the OD ([6]; U937, 100 μM) of the same sequence?
**A.** The OD was 0.821 ± 0.047**.

**Q.** And the OD ([6]; U937, 200 μM)?
**A.** The OD was 0.684 ± 0.046**.

**Q.** What about the OD ([7]; NCI-H929, 50 μM) of the same sequence?
**A.** Its OD is 0.860 ± 0.012**.

**Q.** What about the OD ([7]; NCI-H929, 100 μM) of the same sequence?
**A.** The OD was 0.427 ± 0.016**.

**Q.** And the OD ([7]; NCI-H929, 200 μM)?
**A.** The OD was 0.263 ± 0.026**.

**Q.** And the OD ([8]; Saos-2, 50 μM)?
**A.** Its OD is 1.198 ± 0.067.

**Q.** And the OD ([8]; Saos-2, 100 μM)?
**A.** The OD was 0.946 ± 0.016**.

**Q.** What about the OD ([8]; Saos-2, 200 μM) of the same sequence?
**A.** The OD was 0.627 ± 0.052**.

**Q.** What about the OD ([9]; 50 μM) of the same sequence?
**A.** The OD was 0.887 ± 0.024.

**Q.** And the OD ([9]; 100 μM)?
**A.** Its OD is 0.596 ± 0.061**.

**Q.** What about the OD ([9]; 200 μM) of the same sequence?
**A.** Its OD is 0.350 ± 0.013**.

**Q.** What about the OD ([10]; A2780, 50 μM) of the same sequence?
**A.** Its OD is 0.985 ± 0.046**.

**Q.** What about the OD ([10]; A2780, 100 μM) of the same sequence?
**A.** Its OD is 0.791 ± 0.067**.

**Q.** What about the OD ([10]; A2780, 200 μM) of the same sequence?
**A.** Its OD is 0.441 ± 0.018**.

**Q.** What about the OD ([11]; Aspc-1, 50 μM) of the same sequence?
**A.** The OD was 0.939 ± 0.015.

**Q.** What about the OD ([11]; Aspc-1, 100 μM) of the same sequence?
**A.** Its OD is 0.711 ± 0.047**.

**Q.** And the OD ([11]; Aspc-1, 200 μM)?
**A.** Its OD is 0.509 ± 0.019**.

**Q.** What about the OD ([12]; BGC-823, 50 μM) of the same sequence?
**A.** Its OD is 0.950 ± 0.045.

**Q.** And the OD ([12]; BGC-823, 100 μM)?
**A.** Its OD is 0.556 ± 0.029.

**Q.** And the OD ([12]; BGC-823, 200 μM)?
**A.** Its OD is 0.327 ± 0.025.

**Q.** And the OD ([13]; MDA-MB-231, 50 μM)?
**A.** Its OD is 0.777 ± 0.050.

**Q.** And the OD ([13]; MDA-MB-231, 100 μM)?
**A.** The OD was 0.378 ± 0.058.

**Q.** What about the OD ([13]; MDA-MB-231, 200 μM) of the same sequence?
**A.** Its OD is 0.206 ± 0.016.

**Q.** And the “Inhibition rate (%)” value ([14]; 6.25 μmol/L)?
**A.** The value was 12.76%.

**Q.** And the “Number of migrated cells” value ([14]; 6.25 μmol/L)?
**A.** The value was 475.0 ± 53.3.

**Q.** What about the “Inhibition rate (%)” value ([14]; 12.5 μmol/L) of the same sequence?
**A.** Its value is 39.23%.

**Q.** And the “Number of migrated cells” value ([14]; 12.5 μmol/L)?
**A.** The value was 296.8 ± 45.0.

**Q.** And the “Inhibition rate (%)” value ([14]; 25 μmol/L)?
**A.** The value was 33.83%.

**Q.** And the “Number of migrated cells” value ([14]; 25 μmol/L)?
**A.** The value was 360.3 ± 119.4.

**Q.** What about the “Inhibition rate (%)” value ([14]; 50 μmol/L) of the same sequence?
**A.** Its value is 61.30%.

**Q.** And the “Number of migrated cells” value ([14]; 50 μmol/L)?
**A.** The value was 210.5 ± 66.6.

**Q.** And the “Inhibition rate (%)” value ([15]; A375, 12.5 μmol/L)?
**A.** The value was 46.18%.

**Q.** And the “Number of migrated cells” value ([15]; A375, 12.5 μmol/L)?
**A.** Its value is 139.3 ± 28.5.

**Q.** And the “Inhibition rate (%)” value ([15]; A375, 25 μmol/L)?
**A.** The value was 36.52%.

**Q.** What about the “Number of migrated cells” value ([15]; A375, 25 μmol/L) of the same sequence?
**A.** The value was 164.3 ± 40.1.

**Q.** And the “Inhibition rate (%)” value ([15]; A375, 50 μmol/L)?
**A.** The value was 48.70%.

**Q.** And the “Number of migrated cells” value ([15]; A375, 50 μmol/L)?
**A.** Its value is 132.8 ± 35.1.
